Laboratory results from patent publication US8691852B2, “Amino nicotinic and isonicotinic acid derivatives as DHODH inhibitors” (Amirall, S.A., priority 2006, dated 2014).

Legend:
human DHODH = human DHODH (Homo sapiens (Human), UniProt Q02127); assay: Inhibition of human DHODH activity assay (DCIP chromogen reduction); details: read-out: hDHODH IC50; human enzyme extract, 200 μM CoQD, 100 μM L-DHO, 120 μM DCIP, 10 min room temperature, absorbance 600 nm
Procedure: DHODH activity and its inhibition were studied using a chromogen reduction assay with DCIP (2,6-dichlorophenol-indophenol).
Enzyme extracts (8 μl, ˜1.5 μg of human protein) were incubated in 96-well plates. The assay mixture (200 μl) contained 200 μM CoQD, 100 μM L-DHO, 120 μM DCIP in the assay buffer (100 mM HEPES pH 8.0, 150 mM NaCl, 10% Glicerol, 0.05% Triton X-100) and 2 μl of test compound. The compounds were dissolved in DMSO at a stock concentration of 1 mM, and tested at different concentrations varying from 10 μM to 1 μM to calculate an IC50 (concentration of inhibitor required for 50% of inhibition).
The reaction was initiated by adding the enzyme and then incubated for 10 min at room temperature before measuring DCIP reduction by counting a decrease in absorbance at 600 nm using standard instrumentation (Spectramax).
All reactions were carried out in duplicate and graphs, determining IC50 values for each compound, were plotted using the ABase software.

HIV replication = details: at concentration that can be obtained with conventional dosing; cited from earlier work

Sequence of human DHODH (Q02127 whole entry): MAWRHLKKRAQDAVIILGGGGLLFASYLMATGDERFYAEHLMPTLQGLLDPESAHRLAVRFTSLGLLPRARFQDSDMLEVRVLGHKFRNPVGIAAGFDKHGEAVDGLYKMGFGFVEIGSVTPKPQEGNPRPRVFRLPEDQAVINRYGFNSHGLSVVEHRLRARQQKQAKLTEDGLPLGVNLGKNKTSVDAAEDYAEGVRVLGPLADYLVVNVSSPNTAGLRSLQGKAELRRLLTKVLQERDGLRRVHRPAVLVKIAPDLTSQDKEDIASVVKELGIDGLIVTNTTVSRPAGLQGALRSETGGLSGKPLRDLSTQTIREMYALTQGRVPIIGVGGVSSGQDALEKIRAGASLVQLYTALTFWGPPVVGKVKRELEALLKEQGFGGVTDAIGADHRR

SMILES | IC50 (human DHODH) [nM] | reduces HIV replication (HIV replication)
COc1cccc(-c2cc(F)c(Nc3ncccc3C(=O)O)c(F)c2)c1F [Example 45, 2-(2′,3,5-trifluoro-3′-methoxybiphenyl-4-ylamino)nicotinic acid] | 53 | –
O=C(O)c1ccncc1Nc1ccc(-c2cccc(OC(F)(F)F)c2)cc1F [Example 24, Lithium 3-(3-fluoro-3′-(trifluoromethoxy)biphenyl-4-ylamino)isonicotinate] | 200 | –
O=C(O)c1cc(C2CC2)cnc1Nc1c(F)cc(-c2cccc(OC3CC3)c2)cc1F [Example 50, 2-(3′-cyclopropoxy-3,5-difluorobiphenyl-4-ylamino)-5-cyclopropylnicotinic acid] | 6 | –
O=C(O)c1cccnc1Nc1c(F)cc(-c2cccc(OC3CCC3)c2)cc1F [Example 17, 2-(3′-Cyclobutoxy-3,5-difluorobiphenyl-4-ylamino)nicotinic acid] | 90 | –
COc1cccc(-c2cc(F)c(Nc3ncccc3C(=O)O)cc2F)c1 [Example 6, 2-(2,5-Difluoro-3′-methoxybiphenyl-4-ylamino)nicotinic acid] | 88 | –
CCOc1cccc(-c2cc(F)c(Nc3ncccc3C(=O)O)c(F)c2)c1 [Example 19, 2-(3′-Ethoxy-3,5-difluorobiphenyl-4-ylamino)nicotinic acid] | 19 | –
Cc1c(-c2ccccc2)cc(F)c(Nc2ncccc2C(=O)O)c1F [Example 48, 2-(3,5-difluoro-2-methylbiphenyl-4-ylamino)nicotinic acid] | 5 | –
COc1cccc(-c2cc(F)c(Nc3ncccc3C(=O)O)cc2C)c1 [Example 37, 2-(5-Fluoro-3′-methoxy-2-methylbiphenyl-4-ylamino)nicotinic acid] | 99 | –
COc1cccc(-c2ccc(Nc3ncc(C4CC4)cc3C(=O)O)c(F)c2)c1 [Example 34, 5-Cyclopropyl-2-(3-fluoro-3′-methoxybiphenyl-4-ylamino)nicotinic acid] | 33 | –
O=C(O)c1cccnc1Nc1c(F)cc(-c2cccc(OC3CC3)c2)cc1F [Example 47, 2-(3′-cyclopropoxy-3,5-difluorobiphenyl-4-ylamino)nicotinic acid] | 17 | –
Cc1oncc1C(=O)Nc1ccc(C(F)(F)F)cc1 [Leflunomide] | – | about 75%
Cc1cnc(Nc2ccc(-c3cccc(OC(F)(F)F)c3)cc2F)c(C(=O)O)c1 [Example 33, 2-(3-Fluoro-3′-(trifluoromethoxy)biphenyl-4-ylamino)-5-methylnicotinic acid] | 110 | –
CCOc1cccc(-c2ccc(Nc3ncccc3C(=O)O)c(F)c2)c1 [Example 2, 2-(3′-Ethoxy-3-fluorobiphenyl-4-ylamino)nicotinic acid] | 200 | –
CCOc1cccc(-c2ccc(Nc3cnccc3C(=O)O)c(F)c2)c1 [Example 21, Lithium 3-(3′-ethoxy-3-fluorobiphenyl-4-ylamino)isonicotinate] | 19 | –
Cc1c(-c2ccccc2Cl)cc(F)c(Nc2ncccc2C(=O)O)c1F [Example 57, 2-(2′-chloro-3,5-difluoro-2-methylbiphenyl-4-ylamino)nicotinic acid] | 4 | –
O=C(O)c1cc(C2CC2)cnc1Nc1c(F)cc(-c2cccc(OC(F)(F)F)c2)cc1F [Example 52, 5-cyclopropyl-2-(3,5-difluoro-3′-(trifluoromethoxy)biphenyl-4-ylamino)nicotinic acid] | 4 | –
COc1cccc(-c2c(F)c(F)c(Nc3ncccc3C(=O)O)c(F)c2F)c1 [Example 60, 2-(2,3,5,6-tetrafluoro-3′-methoxybiphenyl-4-ylamino)nicotinic acid] | 3 | –
O=C(O)c1cc(C2CC2)cnc1Nc1c(F)cc(-c2ccccc2Cl)cc1F [Example 54, 2-(2′-chloro-3,5-difluorobiphenyl-4-ylamino)-5-cyclopropylnicotinic acid] | 5 | –
CCOc1cccc(-c2cc(F)c(Nc3ncc(C4CC4)cc3C(=O)O)cc2F)c1 [Example 42, 5-cyclopropyl-2-(3′-ethoxy-2,5-difluorobiphenyl-4-ylamino)nicotinic acid] | 23 | –
O=C(O)c1cc(Cl)cnc1Nc1c(F)cc(-c2ccccc2)cc1F [Example 58, 5-chloro-2-(3,5-difluorobiphenyl-4-ylamino)nicotinic acid] | 8 | –
Cc1ccccc1-c1cc(F)c(Nc2ncccc2C(=O)O)c(F)c1 [Example 61, 2-(3,5-difluoro-2′-methylbiphenyl-4-ylamino)nicotinic acid] | 11 | –
Cc1c(-c2cccc(OC(F)(F)F)c2)cc(F)c(Nc2ncccc2C(=O)O)c1F [Example 56, 2-(3,5-difluoro-2-methyl-3′-(trifluoromethoxy)biphenyl-4-ylamino)nicotinic acid] | 6 | –
CCc1cnc(Nc2c(F)cc(-c3cccc(OC)c3)cc2F)c(C(=O)O)c1 [Example 40, 2-(3,5-difluoro-3′-methoxybiphenyl-4-ylamino)-5-ethylnicotinic acid] | 12 | –
COc1cccc(-c2ccc(Nc3cnccc3C(=O)O)c(OC(F)(F)F)c2)c1 [Example 23, Lithium 3-(3′-methoxy-3-(trifluoromethoxy)biphenyl-4-ylamino)isonicotinate] | 14 | –
COc1cccc(-c2ccc(Nc3ncccc3C(=O)O)c(Cl)c2)c1 [Example 13, 2-(3-Chloro-3′-methoxybiphenyl-4-ylamino)nicotinic acid] | 150 | –
